Results published in patent publication US20140127185A1, “METHODS AND COMPOSITIONS USING NEUROPROTECTIVE STEROIDS AND THROMBOLYTIC AGENTS” (priority 2012, published 2014).

Experiments:
[1] = system: Male Sprague Dawley (SD) rats subjected to focal ischemia; assay: Focal ischemia with delayed tPA in rats: cerebral hemorrhage, infarct volume, brain swelling; assay type: in vivo, rat; conditions: 24 hours post-stroke; tPA 5 mg/kg via femoral vein at 4.5 hours; progesterone i.p. at 2 hours
Protocol: 2,3,5-tripheynltetrazolium (TTC)-stained brain sections are used for quantification of intracerebral hemorrhage with a spectrophotometric hemoglobin assay. Samples typically are collected 19.5 hours after injury. The brain tissue is homogenized in 2 ml 0.05 M tris buffered saline and tween (TBS-T) followed by a 30-minute centrifugation (12,000 rpm) and re-centrifugation for 15-minutes at 10,000 rpm. Then, 200 μl reagent (QuantiChrom™ Hemoglobin Assay Kit; BioAssay Systems) is added to a 50 μl supernatant. Optical density is measured at 405 nm with a spectrophotometer.
Brain edema/swelling are estimated by measuring the hemispheric areas of each 2-mm thick brain slices using Image J software (NIH, Bethesda, […]., USA), typically 24 hours after MCAO. Edema formation is calculated as hemispheric enlargement and expressed as a percentage of the normal areas in the contralateral hemisphere.
Male Sprague Dawley (SD) rats were subjected to focal ischemia, reperfused at 4.5 hours and then treated with tPA (5 mg/kg body weight; via femoral vein) at 4.5 hours or by combined progesterone (given by intraperitoneal injection at 2 hours) plus tPA (given at 4.5 hours). Rats were killed at 24 hours after ischemia, brains were perfused with saline, and coronal sections (2 mm thick) were stained with 2,3,5-triphenyltetrazolium chloride to quantify infarct volumes. […]

[2] = system: claudin-5; assay: Tight junction protein Western blot in vivo (ischemic cortices): claudin-5; design: species or system rat; conditions: 24 hours after ischemia, compared to stroke without tPA / with tPA
Protocol: Peri-infarct cortical tissue is processed for protein analysis. Tissues are homogenized in T-per (Pierce, Rockford, Ill.) containing protease inhibitor cocktail (P8340, Sigma). Homogenates are centrifuged for 15 minutes at 13,000 g. 40 μg of total protein is separated on 8-12% gel and transferred onto polyvinylidene difluoride (Millipore, Mass., USA; PVDF) membranes at 300 mA for 2 hours. To measure the level of immunoglobulin, the membranes were incubated overnight at 4° C. with anti Rat IgG conjugated to biotin. bEND 3 cells are subjected to hypoxia/reperfusion for 9 hours and then lysed on ice in 100 μl of RIPA buffer. Cell lysated are boiled and then electrophoresed in 12% SDS-PAGE acrylamide gels, transferred onto PVDF membranes, and incubated for 1 hour in TBS-T (tris-buffered saline and 0.1% Tween 20) containing 5% bovine serum albumin (BSA). Membranes are then incubated overnight at 4° C. with primary antibodies against occludin (Invitrogen, Calif., USA; 1:1000), claudin-5 (Invitrogen; 1:1000), and ZO-1 (Invitrogen; 1:1000), washed in TBS-T, and incubated for 1 hour at room temperature with corresponding peroxidase-conjugated secondary antibodies (1:5000; KPL, Gaithersburg, Md.). All blots are stripped and re-incubated with β-actin antibodies (1:5000, Sigma) as a loading control. […] Intensity of the bands is measured by an Image Gauge version. […]

[3] = system: MMP-9; assay: Active MMP-9 fluorometric FRET peptide assay of ischemic cortex lysates; assay type: in vivo, rat; conditions: 24 hours after ischemia; tPA at 4.5 hours; vs control and tMCAO groups
Protocol: A Fluorimetric SensoLyte™ 490 kit (AnaSpec Corp., San Jose, Calif. USA) is used to quantify the specific enzymetic activity of active MMP-9 by using a fluorescence resonance energy transfer peptide containing a fluorescent donor and quenching acceptor (Lin, Hou et al. 2008). The samples (100 μg) are placed in a 96-well plate containing 50 μl of assay buffer. The proteolytic resonance energy transfer peptide is expressed as a fold change in fluorescence intensity at excitation of 355 nm/emission of 460 nm.
For in vivo evaluation, Male SD rats were subjected to MCAO, reperfused at 4.5 hours and then treated with tPA only (5 mg/kg body weight via femoral vein) at 4.5 hours post-stroke or with progesterone (intraperitoneally) at 2 hours post-stroke plus tPA at 4.5 hours post-stroke. Rats were killed at 24 hours post-ischemia and their brains perfused for evaluation of cerebral hemorrhage, brain swelling, BBB permeability, MMP-9 activity, and the alteration of tight junction proteins.
To directly determine MMP-9 activity after ischemia, proteolytic activity of MMP-9 was measured using a fluorescence resonance energy transfer peptide. […] Consistent with the Western blot results, exposure of cells to H/R and tPA for 9 hours reduced the detected levels of occludin, as compared to control bEND 3 cells, while MMP-9 levels were increased in cells exposed to H/R and tPA for 9 hours.

[4] = system: rats with MCAO induced by homologous blood clots; assay: Delayed tPA to cause hemorrhage: embolic MCAO model of hemorrhagic transformation; assay type: in vivo, rat; conditions: recombinant tPA 10 mg/kg through the tail vein at 4.5 hours post MCAO-induction
Excerpt: A focal thromboembolic model of cerebral ischemia is induced in rats by middle cerebral artery occlusion (MCAO) via the fibrin-rich clots technique under isoflurane anesthesia. Surgical anesthesia is induced with isoflurane (5% induction, 2% maintenance, […]). Rats are cannulated with a femoral artery catheter for measurement of arterial blood gases, pH (Ciba-Corning 248 pH/blood gas analyzer), blood glucose, hematocrit and mean arterial blood pressure. The body temperature of the animals is maintained at […] with a heating pad controlled by rectal thermistors. A closed cranial window is made in the right parietal skull (2 mm posterior, 6 mm lateral to bregma) for laser doppler probe placement. The rats are mounted on a modified stereotaxic frame equipped with a facemask. The right common carotid artery (CCA), the right internal carotid artery (ICA) and the right external carotid artery (ECA) are exposed by a ventral incision in throat. After surgical preparation of the right CCA and ligation of the pterygo-palatine artery, a PE10 catheter is inserted into the ECA. The tip of the catheter is placed close to the carotid bifurcation. To achieve thromboembolic occlusion of the right middle cerebral artery, 12 medium-sized fibrin rich clots suspended in phosphate with phosphate buffered saline (0.3 ml) are injected by a 1 ml syringe connected to the catheter. […]

tPA: serum protease acting specifically on serum plasminogen; also known as alteplase, available commercially as Activase
Hemorrhage volume (hemoglobin in perfused brain) [1]: induced cerebral hemorrhage | Lower molecular weight 17-kDa claudin-5 fragments [2]: increase | MMP-9 activity (FRET peptide) [3]: significantly higher | Hemispheric enlargement and hemorrhage [4]: significant hemispheric enlargement and hemorrhage
